Patent US4864023A, “Pyrido(3,2,1-IJ)-1,3,4-benzoxadiazine derivatives” (priority 1988, dated 1989)
Converted amounts (≈) assume the structure as drawn. Read-outs that look alike come from different tables or passages of the source.

Experiments:
Assay in all cases: in vitro antibacterial activity, standard agar dilution method
Assay type in all cases: cell-based
[1] = system: Bacillus subtilis PCI 219; conditions: PCI219, aerobic, read-out: minimum inhibitory concentration (MIC)
[2] = system: Staphylococcus aureus FDA 209P JC-1; conditions: FDA209P, read-out: minimum inhibitory concentration (MIC)
[3] = system: Staphylococcus aureus NR 2855; conditions: NR2855; Staphylococcus aureus NR 2855; aerobic; agar dilution; read-out: minimum inhibitory concentration (MIC)
[4] = system: Staphylococcus aureus Smith; conditions: read-out: minimum inhibitory concentration (MIC)
[5] = system: Staphylococcus epidermidis IFO 12993; conditions: IFO12993, aerobic, read-out: minimum inhibitory concentration (MIC)
[6] = system: Staphylococcus epidermidis NR 2942; conditions: NR2942, aerobic, read-out: minimum inhibitory concentration (MIC)
[7] = system: Enterococcus faecalis NR 2943; conditions: NR2943, aerobic, read-out: minimum inhibitory concentration (MIC)
[8] = system: Alcaligenes faecalis IFO 13111; conditions: IFO13111, aerobic, read-out: minimum inhibitory concentration (MIC)
[9] = system: Citrobacter freundii IFO 12681; conditions: IFO12681, aerobic, read-out: minimum inhibitory concentration (MIC)
[10] = system: Enterobacter aerogenes NR 2945; conditions: Klebsiella aerogenes, NR2945, aerobic, read-out: minimum inhibitory concentration (MIC)
[11] = system: Enterobacter cloacae NR 2946; conditions: NR2946, aerobic, read-out: minimum inhibitory concentration (MIC)
[12] = system: Escherichia coli NIHJ JC-2; conditions: NIHJJC2, aerobic, read-out: minimum inhibitory concentration (MIC)
Escherichia coli NR 2630 = conditions: NR2630; Escherichia coli NR 2630; aerobic; agar dilution; read-out: minimum inhibitory concentration (MIC)
[13] = system: Klebsiella pneumoniae FDA PCI 602; conditions: FDAPCI602, aerobic, read-out: minimum inhibitory concentration (MIC)
[14] = system: Bordetella bronchiseptica ATCC 4617; conditions: ATCC4617, aerobic, read-out: minimum inhibitory concentration (MIC)
[15] = system: Proteus rettgeri ATCC 14505; conditions: Providencia rettgeri, ATCC14505, aerobic, read-out: minimum inhibitory concentration (MIC)
[16] = system: Proteus vulgaris OX19 ATCC 6898; conditions: ATCC6898, aerobic, read-out: minimum inhibitory concentration (MIC)
[17] = system: Pseudomonas aeruginosa A3; conditions: aerobic, read-out: minimum inhibitory concentration (MIC)
[18] = system: Pseudomonas aeruginosa NR 2950; conditions: NR2950, aerobic, read-out: minimum inhibitory concentration (MIC)
[19] = system: Serratia marcescens IFO 12648; conditions: IFO12648, aerobic, read-out: minimum inhibitory concentration (MIC)
[20] = system: Salmonella typhimurium IFO 12529; conditions: Salmonella enterica, aerobic, read-out: minimum inhibitory concentration (MIC)
[21] = Staphylococcus aureus FDA 209P JC-1, aerobic, agar dilution
[22] = Staphylococcus aureus Smith, aerobic, agar dilution

Compound | MIC [1] [µg/mL] | MIC [3] [µg/mL] | MIC [5] [µg/mL] | MIC [6] [µg/mL] | MIC [7] [µg/mL] | MIC [8] [µg/mL] | MIC [9] [µg/mL] | MIC [10] [µg/mL] | MIC [11] [µg/mL] | MIC [12] [µg/mL] | MIC (Escherichia coli NR 2630) [µg/mL] | MIC [13] [µg/mL] | MIC [14] [µg/mL] | MIC [15] [µg/mL] | MIC [16] [µg/mL] | MIC [17] [µg/mL] | MIC [18] [µg/mL] | MIC [19] [µg/mL] | MIC [20] [µg/mL] | MIC [2, 21] [µg/mL] | also measured
CCNC1CCN(c2c(F)cc3c(=O)c(C(=O)O)cn4c3c2OCN4C)CC1 [Example 35] | 0.05 (≈ 0.128 µM) | 1.56 (≈ 4 µM) | 0.78 (≈ 2 µM) | 0.78 (≈ 2 µM) | 6.25 (≈ 16 µM) | 25 (≈ 64 µM) | 0.2 (≈ 0.512 µM) | 0.1 (≈ 0.256 µM) | 0.39 (≈ 0.999 µM) | 0.1 (≈ 0.256 µM) | 0.1 (≈ 0.256 µM) | 1.56 (≈ 4 µM) | 12.5 (≈ 32 µM) | 3.13 (≈ 8.02 µM) | 0.05 (≈ 0.128 µM) | 1.56 (≈ 4 µM) | 12.5 (≈ 32 µM) | 1.56 (≈ 4 µM) | 0.1 (≈ 0.256 µM) | – | MIC ([2]; Staphylococcus aureus): 0.39 µg/mL (≈ 0.999 µM); MIC ([4]; Staphylococcus aureus): 0.39 µg/mL (≈ 0.999 µM)
CN1COc2c(N3CCS(=O)(=O)CC3)c(F)cc3c(=O)c(C(=O)O)cn1c23 [Example 39, 10-(1,1-dioxide-4-thiomorpholinyl)-9-fluoro-3-methyl-7-oxo-2,3-dihydro-7H-pyrido[3,2,1-ij]-1,3,4-benzoxadiazine-6-carboxylic acid] | 0.025 (≈ 0.0629 µM) | 0.78 (≈ 1.96 µM) | 0.39 (≈ 0.981 µM) | 0.39 (≈ 0.981 µM) | 12.5 (≈ 31.5 µM) | 6.25 (≈ 15.7 µM) | 0.78 (≈ 1.96 µM) | 0.05 (≈ 0.126 µM) | 0.78 (≈ 1.96 µM) | 0.78 (≈ 1.96 µM) | 0.025 (≈ 0.0629 µM) | 1.56 (≈ 3.93 µM) | 0.78 (≈ 1.96 µM) | 3.13 (≈ 7.88 µM) | 0.05 (≈ 0.126 µM) | 3.13 (≈ 7.88 µM) | 12.5 (≈ 31.5 µM) | 1.56 (≈ 3.93 µM) | 0.2 (≈ 0.503 µM) | 0.39 (≈ 0.981 µM) | MIC [4, 22]: 0.39 µg/mL (≈ 0.981 µM)
CC(=O)CN1CCN(c2c(F)cc3c(=O)c(C(=O)O)cn4c3c2OCN4C)CC1 [Example 40, 9-fluoro-3-methyl-7-oxo-10-[4-(2-oxo-n-propyl)-1-piperazinyl]-2,3-dihydro-7H-pyrido[3,2,1-ij]-1,3,4-benzoxadiazine-6-carboxylic acid] | 0.1 (≈ 0.247 µM) | 0.78 (≈ 1.93 µM) | 1.56 (≈ 3.86 µM) | 0.78 (≈ 1.93 µM) | 12.5 (≈ 30.9 µM) | 6.25 (≈ 15.5 µM) | 0.2 (≈ 0.495 µM) | 0.1 (≈ 0.247 µM) | 0.39 (≈ 0.964 µM) | 0.39 (≈ 0.964 µM) | 0.2 (≈ 0.495 µM) | 1.56 (≈ 3.86 µM) | 1.56 (≈ 3.86 µM) | 3.13 (≈ 7.74 µM) | 0.2 (≈ 0.495 µM) | 1.56 (≈ 3.86 µM) | 12.5 (≈ 30.9 µM) | 1.56 (≈ 3.86 µM) | 0.39 (≈ 0.964 µM) | 1.56 (≈ 3.86 µM) | MIC [4, 22]: 0.78 µg/mL (≈ 1.93 µM)
CN1COc2c(N3CCN(CC(=O)c4ccccc4)CC3)c(F)cc3c(=O)c(C(=O)O)cn1c23 [Example 41] | 3.13 (≈ 6.71 µM) | 6.25 (≈ 13.4 µM) | 6.25 (≈ 13.4 µM) | 12.5 (≈ 26.8 µM) | 100 (≈ 214 µM) | 50 (≈ 107 µM) | 0.39 (≈ 0.836 µM) | 0.1 (≈ 0.214 µM) | 0.78 (≈ 1.67 µM) | 0.78 (≈ 1.67 µM) | 0.39 (≈ 0.836 µM) | 3.13 (≈ 6.71 µM) | 25 (≈ 53.6 µM) | 3.13 (≈ 6.71 µM) | 1.56 (≈ 3.34 µM) | 3.13 (≈ 6.71 µM) | 12.5 (≈ 26.8 µM) | 3.13 (≈ 6.71 µM) | 0.78 (≈ 1.67 µM) | 6.25 (≈ 13.4 µM) | MIC [4, 22]: 6.25 µg/mL (≈ 13.4 µM)
CCCN1CCN(c2c(F)cc3c(=O)c(C(=O)O)cn4c3c2OCN4C)CC1 [Example 43] | 0.1 (≈ 0.256 µM) | 0.78 (≈ 2 µM) | 0.39 (≈ 0.999 µM) | 0.39 (≈ 0.999 µM) | 6.25 (≈ 16 µM) | 0.78 (≈ 2 µM) | 0.1 (≈ 0.256 µM) | 0.1 (≈ 0.256 µM) | 0.1 (≈ 0.256 µM) | 0.1 (≈ 0.256 µM) | 0.05 (≈ 0.128 µM) | 0.39 (≈ 0.999 µM) | 0.39 (≈ 0.999 µM) | 0.78 (≈ 2 µM) | 0.1 (≈ 0.256 µM) | 0.78 (≈ 2 µM) | 6.25 (≈ 16 µM) | 0.2 (≈ 0.512 µM) | 0.1 (≈ 0.256 µM) | 0.78 (≈ 2 µM) | MIC [4, 22]: 0.39 µg/mL (≈ 0.999 µM)
C=CCN1CCN(c2c(F)cc3c(=O)c(C(=O)O)cn4c3c2OCN4C)CC1 [Example 46] | 0.05 (≈ 0.129 µM) | 0.39 (≈ 1 µM) | 0.78 (≈ 2.01 µM) | 0.39 (≈ 1 µM) | 6.25 (≈ 16.1 µM) | 1.56 (≈ 4.02 µM) | 0.1 (≈ 0.257 µM) | 0.1 (≈ 0.257 µM) | 0.2 (≈ 0.515 µM) | 0.1 (≈ 0.257 µM) | 0.05 (≈ 0.129 µM) | 0.78 (≈ 2.01 µM) | 0.39 (≈ 1 µM) | 1.56 (≈ 4.02 µM) | 0.05 (≈ 0.129 µM) | 1.56 (≈ 4.02 µM) | 6.25 (≈ 16.1 µM) | 0.39 (≈ 1 µM) | 0.1 (≈ 0.257 µM) | 0.78 (≈ 2.01 µM) | MIC [4, 22]: 0.39 µg/mL (≈ 1 µM)
CN1COc2c(N3CCN(C(=O)CCC(=O)O)CC3)c(F)cc3c(=O)c(C(=O)O)cn1c23 [Example 49, 10-[4-(3-carboxypropionyl)-1-piperazinyl]-9-fluoro-3-methyl-7-oxo-2,3-dihydro-7H-pyrido[3,2,1-ij]-1,3,4-benzoxadiazine-6-carboxylic acid] | 3.13 (≈ 6.98 µM) | 12.5 (≈ 27.9 µM) | 12.5 (≈ 27.9 µM) | 12.5 (≈ 27.9 µM) | 100 (≈ 223 µM) | 100 (≈ 223 µM) | 0.39 (≈ 0.87 µM) | 0.39 (≈ 0.87 µM) | 0.78 (≈ 1.74 µM) | 1.56 (≈ 3.48 µM) | 0.39 (≈ 0.87 µM) | 1.56 (≈ 3.48 µM) | 50 (≈ 112 µM) | 3.13 (≈ 6.98 µM) | 0.78 (≈ 1.74 µM) | 3.13 (≈ 6.98 µM) | 50 (≈ 112 µM) | 3.13 (≈ 6.98 µM) | 0.39 (≈ 0.87 µM) | 6.25 (≈ 13.9 µM) | MIC [4, 22]: 6.25 µg/mL (≈ 13.9 µM)
